Laboratory results taken from US8962596B2 (Array BioPharma Inc., priority 2010, dated 2015).
Structures can show the parent of a compound that is named as a salt.

Legend:
Assay type in all cases: biochemical
JAK2 = molecular target: T1, JAK2 (Homo sapiens, UniProt O60674); assay: JAK2 Inhibition Assay (Omnia kinase fluorescence peptide substrate assay); settings: averaged IC50 ranges; assay of Example C; 25 μM (Km app) or 1 mM ATP, 5 nM JAK2
T1 construct: purchased Invitrogen Corporation, Carlsbad, Calif; PV4288
T1 sequence (O60674 whole entry): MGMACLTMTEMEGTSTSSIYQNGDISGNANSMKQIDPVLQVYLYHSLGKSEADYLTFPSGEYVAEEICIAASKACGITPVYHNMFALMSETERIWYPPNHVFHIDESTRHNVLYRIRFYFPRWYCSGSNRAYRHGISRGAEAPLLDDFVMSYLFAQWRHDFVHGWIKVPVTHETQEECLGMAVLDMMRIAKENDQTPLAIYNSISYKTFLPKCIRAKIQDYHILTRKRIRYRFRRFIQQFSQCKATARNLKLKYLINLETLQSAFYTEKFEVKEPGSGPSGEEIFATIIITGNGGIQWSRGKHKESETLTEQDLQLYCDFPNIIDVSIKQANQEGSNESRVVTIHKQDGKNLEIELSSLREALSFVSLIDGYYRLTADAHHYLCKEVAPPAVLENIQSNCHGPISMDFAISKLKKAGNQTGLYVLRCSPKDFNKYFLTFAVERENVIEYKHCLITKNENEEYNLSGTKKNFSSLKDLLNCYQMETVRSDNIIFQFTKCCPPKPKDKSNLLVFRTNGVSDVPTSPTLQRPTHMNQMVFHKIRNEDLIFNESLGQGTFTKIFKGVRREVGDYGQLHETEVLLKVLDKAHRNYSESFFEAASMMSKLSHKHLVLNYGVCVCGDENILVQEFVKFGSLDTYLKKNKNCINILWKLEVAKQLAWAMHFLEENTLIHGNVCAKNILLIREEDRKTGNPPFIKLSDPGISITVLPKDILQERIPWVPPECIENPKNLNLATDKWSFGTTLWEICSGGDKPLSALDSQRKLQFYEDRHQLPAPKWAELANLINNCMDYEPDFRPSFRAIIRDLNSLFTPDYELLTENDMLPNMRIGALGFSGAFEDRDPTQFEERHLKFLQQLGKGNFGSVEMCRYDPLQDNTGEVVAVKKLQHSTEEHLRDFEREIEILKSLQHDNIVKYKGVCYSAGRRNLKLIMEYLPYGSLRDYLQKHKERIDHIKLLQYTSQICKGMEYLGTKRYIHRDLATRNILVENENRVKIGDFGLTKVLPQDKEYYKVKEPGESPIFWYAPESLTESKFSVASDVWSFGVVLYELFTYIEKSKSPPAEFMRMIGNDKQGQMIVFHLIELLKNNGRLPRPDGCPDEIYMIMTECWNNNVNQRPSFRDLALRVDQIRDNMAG
In short: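 A 10-point, 3-fold compound series (top 10 μM, 2% DMSO) was tested against 5 nM JAK2 with 10 μM Omnia Y7 substrate and either 1 mM or 25 μM (Km app) ATP. Buffer: pH 7.4 HEPES, MgCl2, Triton X-100, DTT. Sox fluorescence was monitored kinetically for 45 min; IC50 is the concentration giving 50 POC on a 4-parameter fit.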

JAK1 = molecular target: T2, JAK1 (Homo sapiens, UniProt P23458); assay: JAK1 Inhibition Assay (Omnia kinase fluorescence peptide substrate assay); settings: averaged IC50 ranges; assay of Example B; 40 μM (Km app) or 1 mM ATP, 15 nM JAK1
T2 construct: purchased Invitrogen Corporation, Carlsbad, Calif; PV4775
T2 sequence (P23458 whole entry): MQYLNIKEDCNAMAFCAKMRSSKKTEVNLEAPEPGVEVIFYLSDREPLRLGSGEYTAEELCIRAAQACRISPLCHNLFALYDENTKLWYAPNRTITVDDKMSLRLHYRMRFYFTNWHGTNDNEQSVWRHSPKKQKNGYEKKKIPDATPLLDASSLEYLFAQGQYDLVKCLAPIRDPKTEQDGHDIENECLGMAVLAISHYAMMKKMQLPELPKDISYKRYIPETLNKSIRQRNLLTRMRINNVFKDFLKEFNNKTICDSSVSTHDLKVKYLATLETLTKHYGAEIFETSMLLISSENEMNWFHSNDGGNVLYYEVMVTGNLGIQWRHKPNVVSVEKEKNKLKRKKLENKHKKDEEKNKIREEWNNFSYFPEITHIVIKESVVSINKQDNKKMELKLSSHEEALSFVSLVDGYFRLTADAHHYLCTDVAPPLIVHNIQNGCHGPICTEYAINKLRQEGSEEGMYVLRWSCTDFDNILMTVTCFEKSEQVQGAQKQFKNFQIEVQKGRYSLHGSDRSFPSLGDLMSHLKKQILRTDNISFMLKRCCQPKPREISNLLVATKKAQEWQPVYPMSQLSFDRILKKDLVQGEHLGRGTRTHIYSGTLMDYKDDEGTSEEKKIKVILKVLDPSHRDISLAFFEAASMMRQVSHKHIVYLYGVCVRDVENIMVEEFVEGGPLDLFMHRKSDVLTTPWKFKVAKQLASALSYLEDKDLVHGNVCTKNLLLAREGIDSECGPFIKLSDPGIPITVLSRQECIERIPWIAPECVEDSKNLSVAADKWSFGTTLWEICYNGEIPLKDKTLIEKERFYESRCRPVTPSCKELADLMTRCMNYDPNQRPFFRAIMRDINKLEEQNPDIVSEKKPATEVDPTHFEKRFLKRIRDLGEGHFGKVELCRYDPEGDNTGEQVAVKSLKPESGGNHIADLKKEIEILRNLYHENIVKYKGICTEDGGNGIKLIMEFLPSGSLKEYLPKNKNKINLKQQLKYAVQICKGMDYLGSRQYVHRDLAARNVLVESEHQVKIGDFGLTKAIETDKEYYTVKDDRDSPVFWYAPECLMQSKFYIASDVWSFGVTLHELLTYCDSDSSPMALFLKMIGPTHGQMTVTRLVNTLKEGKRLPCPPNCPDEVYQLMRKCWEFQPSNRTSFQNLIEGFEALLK

Human Tyk2 kinase domain = molecular target: T3, Human Tyk2 kinase domain (Homo sapiens, UniProt P29597); assay: Tyk2 Inhibition Assay (Omnia kinase fluorescence peptide substrate assay); settings: averaged IC50 ranges; assay of Example A; 10 μM (Km app) or 1 mM ATP, 2 nM Tyk2
T3 construct: comprising amino acids 886 to 1187 with 10 additional histidine residues; 10xHis (histidine tag) (C, cleaved yes); made in house
T3 sequence (P29597 886-1187): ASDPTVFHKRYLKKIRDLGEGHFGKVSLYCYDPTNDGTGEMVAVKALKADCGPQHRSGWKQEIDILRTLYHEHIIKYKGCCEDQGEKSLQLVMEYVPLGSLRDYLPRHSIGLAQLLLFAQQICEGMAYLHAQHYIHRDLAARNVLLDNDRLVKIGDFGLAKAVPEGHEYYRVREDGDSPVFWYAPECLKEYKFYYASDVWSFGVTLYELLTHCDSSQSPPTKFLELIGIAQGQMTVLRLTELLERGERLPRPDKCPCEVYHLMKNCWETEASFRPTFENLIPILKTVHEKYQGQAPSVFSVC
In short: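 2 nM His-tag-cleaved kinase domain (aa 886–1187) with 8 μM Omnia Y12 peptide, 10 μM (Km app) or 1 mM ATP, pH 7.4 HEPES/10 mM MgCl2, 2% DMSO. Fluorescence (ex 360/em 485 nm) every 50 s for 45 min; IC50 from 4-parameter fit of POC, top dose 10 μM.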

JAK3 = molecular target: T4, JAK3 (Homo sapiens, UniProt P52333); assay: JAK3 Inhibition Assay (Omnia kinase fluorescence peptide substrate assay); settings: averaged IC50 ranges; assay of Example D; 10 μM (Km app) or 1 mM ATP, 2.5 nM JAK3
T4 construct: purchased Invitrogen Corporation, Carlsbad, Calif; PV4080
T4 sequence (P52333 1-1124): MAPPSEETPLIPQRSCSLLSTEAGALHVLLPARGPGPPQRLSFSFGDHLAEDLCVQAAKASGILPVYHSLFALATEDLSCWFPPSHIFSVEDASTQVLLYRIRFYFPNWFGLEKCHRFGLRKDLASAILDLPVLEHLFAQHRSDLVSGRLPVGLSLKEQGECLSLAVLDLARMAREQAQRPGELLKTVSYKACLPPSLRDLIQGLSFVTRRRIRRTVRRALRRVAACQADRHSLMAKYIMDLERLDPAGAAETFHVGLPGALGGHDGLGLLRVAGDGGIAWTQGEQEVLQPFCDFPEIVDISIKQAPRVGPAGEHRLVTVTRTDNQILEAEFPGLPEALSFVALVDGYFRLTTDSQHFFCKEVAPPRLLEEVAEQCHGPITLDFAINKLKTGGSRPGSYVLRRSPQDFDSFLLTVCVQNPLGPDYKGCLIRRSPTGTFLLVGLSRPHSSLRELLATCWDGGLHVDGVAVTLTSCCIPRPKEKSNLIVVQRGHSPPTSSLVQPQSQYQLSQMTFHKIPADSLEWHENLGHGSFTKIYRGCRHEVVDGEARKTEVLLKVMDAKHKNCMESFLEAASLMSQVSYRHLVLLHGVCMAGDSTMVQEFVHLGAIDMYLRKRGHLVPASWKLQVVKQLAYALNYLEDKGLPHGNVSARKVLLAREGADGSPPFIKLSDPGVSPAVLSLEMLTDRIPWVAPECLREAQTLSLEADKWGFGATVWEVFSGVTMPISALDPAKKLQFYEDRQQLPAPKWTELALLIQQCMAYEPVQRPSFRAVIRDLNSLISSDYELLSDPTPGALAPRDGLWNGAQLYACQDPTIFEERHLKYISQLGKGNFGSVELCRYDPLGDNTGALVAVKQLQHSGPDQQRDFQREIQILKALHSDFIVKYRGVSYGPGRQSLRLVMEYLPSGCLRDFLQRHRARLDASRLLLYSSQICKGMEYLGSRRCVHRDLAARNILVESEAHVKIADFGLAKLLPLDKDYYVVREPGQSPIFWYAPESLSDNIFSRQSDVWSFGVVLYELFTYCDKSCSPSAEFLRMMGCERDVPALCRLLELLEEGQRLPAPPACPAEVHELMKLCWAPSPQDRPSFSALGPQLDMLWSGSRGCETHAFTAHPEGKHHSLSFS
In short: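 Kinase at 2.5 nM with 10 µM Omnia Y7 peptide and 10 µM (Km app) or 1 mM ATP in 25 mM HEPES pH 7.4, 10 mM MgCl2, 1 mM DTT, 0.01% Triton X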

`Cn1cc(-c2cc3nccn3c(-c3cnn(C4(CC#N)CCN(C(=O)OC(C)(C)C)CC4)c3)n2)cn1` [Example 21, tert-butyl 4-(cyanomethyl)-4-(4-(7-(1-methyl-1H-pyrazol-4-yl)imidazo[1,2-c]pyrimidin-5-yl)-1H-pyrazol-1-yl)piperidine-1-carboxylate] was tested, and the IC50 (JAK2) was > 1000 nM, the IC50 (JAK1) was > 1000 nM and the IC50 (Human Tyk2 kinase domain) was 100 to 1000 nM. For the same molecule, the IC50 (JAK3) was > 1000 nM.
In the case of `CN1CCc2cc(-c3cc4nccn4c(-c4cnn(C(CC#N)C5CC5)c4)n3)ccc2C1` (centres unmarked) [Example 53, 3-Cyclopropyl-3-(4-(7-(2-methyl-1,2,3,4-tetrahydroisoquinolin-6-yl)imidazo[1,2-c]pyrimidin-5-yl)-1H-pyrazol-1-yl)propanenitrile], the IC50 (JAK2) is reported as 10 to 100 nM, the IC50 (JAK1) is reported as 10 to 100 nM and the IC50 (Human Tyk2 kinase domain) is reported as 10 to 100 nM. The IC50 (JAK3) was 100 to 1000 nM.
`Cn1cc(-c2cc3nccn3c(-c3cnn(C(CC#N)CC(C)(C)C)c3)n2)cn1` (centres unmarked) [Example 5] gave an IC50 (JAK2) of 100 to 1000 nM, an IC50 (JAK1) of 100 to 1000 nM and an IC50 (Human Tyk2 kinase domain) of 10 to 100 nM. The IC50 (JAK3) was > 1000 nM.
For `Cn1cc(-c2cc3nccn3c(-c3cnn(C(CC#N)c4cccnc4)c3)n2)cn1` (centres unmarked) [Example 7, 3-(4-(7-(1-methyl-1H-pyrazol-4-yl)imidazo[1,2-c]pyrimidin-5-yl)-1H-pyrazol-1-yl)-3-(pyridin-3-yl)propanenitrile], the IC50 (JAK2) was 10 to 100 nM, the IC50 (JAK1) was 10 to 100 nM and the IC50 (Human Tyk2 kinase domain) was < 10 nM. The IC50 (JAK3) was 100 to 1000 nM.
`Cn1cc(-c2cc3nccn3c(-c3cnn(C4(CC#N)CN(CC(F)(F)C(F)F)C4)c3)n2)cn1` [Example 80, 2-(3-(4-(7-(1-methyl-1H-pyrazol-4-yl)imidazo[1,2-c]pyrimidin-5-yl)-1H-pyrazol-1-yl)-1-(2,2,3,3-tetrafluoropropyl)azetidin-3-yl)acetonitrile] was tested, and the IC50 (JAK2) was 10 to 100 nM, the IC50 (JAK1) was 100 to 1000 nM and the IC50 (Human Tyk2 kinase domain) was < 10 nM. The IC50 (JAK3) was > 1000 nM.
For `CC(C)N1CC(CC#N)(n2cc(-c3nc(-c4cnn(C)c4)cc4nccn34)cn2)C1` [Example 82, 2-(1-isopropyl-3-(4-(7-(1-methyl-1H-pyrazol-4-yl)imidazo[1,2-c]pyrimidin-5-yl)-1H-pyrazol-1-yl)azetidin-3-yl)acetonitrile], the IC50 (JAK2) was 100 to 1000 nM, the IC50 (JAK1) was > 1000 nM and the IC50 (Human Tyk2 kinase domain) was 10 to 100 nM. For the same molecule, the IC50 (JAK3) was > 1000 nM.
Molecule `CN1CCc2ccc(-c3cc4nccn4c(-c4cnn(C(CC#N)C5CC5)c4)n3)cc2C1` (centres unmarked) [Example 55, 3-Cyclopropyl-3-(4-(7-(2-methyl-1,2,3,4-tetrahydroisoquinolin-7-yl)imidazo[1,2-c]pyrimidin-5-yl)-1H-pyrazol-1-yl)propanenitrile] has an IC50 (JAK2) of 10 to 100 nM, an IC50 (JAK1) of 10 to 100 nM and an IC50 (Human Tyk2 kinase domain) of 10 to 100 nM. It also gave an IC50 (JAK3) of 100 to 1000 nM.
In the case of `N#CCC(C1CC1)n1cc(-c2nc(-c3ccc(N4CC5CCC(C4)O5)cc3)cc3nccn23)cn1` (centres unmarked) [Example 58, 3-(4-(7-(4-(8-Oxa-3-azabicyclo[3.2.1]octan-3-yl)phenyl)imidazo[1,2-c]pyrimidin-5-yl)-1H-pyrazol-1-yl)-3-cyclopropylpropanenitrile], the IC50 (JAK2) is reported as 10 to 100 nM, the IC50 (JAK1) is reported as 10 to 100 nM and the IC50 (Human Tyk2 kinase domain) is reported as < 10 nM. It also gave an IC50 (JAK3) of 100 to 1000 nM.
With `N#CCC1(n2cc(-c3nc(-c4cnn(C5COC5)c4)cc4nccn34)cn2)CN(CC(F)(F)F)C1` [Example 105, 2-(3-(4-(7-(1-(Oxetan-3-yl)-1H-pyrazol-4-yl)imidazo[1,2-c]pyrimidin-5-yl)-1H-pyrazol-1-yl)-1-(2,2,2-trifluoroethyl)azetidin-3-yl)acetonitrile] the IC50 (JAK2) was 10 to 100 nM, the IC50 (JAK1) was 100 to 1000 nM and the IC50 (Human Tyk2 kinase domain) was < 10 nM. For the same molecule, the IC50 (JAK3) was > 1000 nM.
With `Cc1nnc(-c2cc3nccn3c(-c3cnn(C(CC#N)C4CC4)c3)n2)s1` (centres unmarked) [Example 45, 3-Cyclopropyl-3-(4-(7-(5-methyl-1,3,4-thiadiazol-2-yl)imidazo[1,2-c]pyrimidin-5-yl)-1H-pyrazol-1-yl)propanenitrile] the IC50 (JAK2) was > 1000 nM, the IC50 (JAK1) was > 1000 nM and the IC50 (Human Tyk2 kinase domain) was 100 to 1000 nM. The IC50 (JAK3) was > 1000 nM.
For `Cn1cc(-c2cc3nccn3c(-c3cnn(C4(CC#N)CN(S(C)(=O)=O)C4)c3)n2)cn1` [Example 92, 2-(3-(4-(7-(1-methyl-1H-pyrazol-4-yl)imidazo[1,2-c]pyrimidin-5-yl)-1H-pyrazol-1-yl)-1-(methylsulfonyl)azetidin-3-yl)acetonitrile], the IC50 (JAK2) was 10 to 100 nM, the IC50 (JAK1) was 100 to 1000 nM and the IC50 (Human Tyk2 kinase domain) was < 10 nM. The IC50 (JAK3) was > 1000 nM.
`Cn1cc(-c2cc3nccn3c(-c3ccn(C4(CC#N)CNC4)c3)n2)cn1` [Example 127, 2-(3-(3-(7-(1-Methyl-1H-pyrazol-4-yl)imidazo[1,2-c]pyrimidin-5-yl)-1H-pyrrol-1-yl)azetidin-3-yl)acetonitrile trifluoroacetate] showed an IC50 (JAK2) of 100 to 1000 nM, an IC50 (JAK1) of 100 to 1000 nM and an IC50 (Human Tyk2 kinase domain) of 10 to 100 nM. For the same molecule, the IC50 (JAK3) was > 1000 nM.
`Cn1cc(-c2cc3nccn3c(-c3cnn(C4(CC#N)CN(CCC#N)C4)c3)n2)cn1` [Example 78, 3-(3-(cyanomethyl)-3-(4-(7-(1-methyl-1H-pyrazol-4-yl)imidazo[1,2-c]pyrimidin-5-yl)-1H-pyrazol-1-yl)azetidin-1-yl)propanenitrile] gave an IC50 (JAK2) of 100 to 1000 nM, an IC50 (JAK1) of 100 to 1000 nM and an IC50 (Human Tyk2 kinase domain) of 10 to 100 nM. For the same molecule, the IC50 (JAK3) was > 1000 nM.
Work on `Cn1cc(-c2cc3nccn3c(-c3cnn(C4(CC#N)CN(C5CC5)C4)c3)n2)cn1` [Example 66, 2-(1-Cyclopropyl-3-(4-(7-(1-methyl-1H-pyrazol-4-yl)imidazo[1,2-c]pyrimidin-5-yl)-1H-pyrazol-1-yl)azetidin-3-yl)acetonitrile] yielded an IC50 (JAK2) of 100 to 1000 nM, an IC50 (JAK1) of 100 to 1000 nM and an IC50 (Human Tyk2 kinase domain) of 10 to 100 nM. The IC50 (JAK3) was > 1000 nM.
For `N#CCC(C1CC1)n1cc(-c2nc(C(=O)Nc3ccccn3)cc3nccn23)cn1` (centres unmarked) [Example 125, 5-(1-(2-cyano-1-cyclopropylethyl)-1H-pyrazol-4-yl)-N-(pyridin-2-yl)imidazo[1,2-c]pyrimidine-7-carboxamide], the IC50 (JAK2) was > 1000 nM, the IC50 (JAK1) was 100 to 1000 nM and the IC50 (Human Tyk2 kinase domain) was 100 to 1000 nM. The IC50 (JAK3) was > 1000 nM.
In the case of `Cn1cc(-c2cc3nccn3c(-c3cnn(C(CC#N)C4CC4)c3)n2)cn1` (single isomer, unassigned; enantiomer 2) [Example 4, Enantiomer 2 of 3-cyclopropyl-3-(4-(7-(1-methyl-1H-pyrazol-4-yl)imidazo[1,2-c]pyrimidin-5-yl)-1H-pyrazol-1-yl)propanenitrile (Peak 2)], the IC50 (JAK2) is reported as 10 to 100 nM, the IC50 (JAK1) is reported as 10 to 100 nM and the IC50 (Human Tyk2 kinase domain) is reported as < 10 nM. It also gave an IC50 (JAK3) of 100 to 1000 nM.
For `CS(=O)(=O)CCn1cc(-c2cc3nccn3c(-c3ccn(C4(CC#N)CN(CC(F)(F)F)C4)n3)n2)cn1` [Example 143, 2-(3-(3-(7-(1-(2-(methylsulfonyl)ethyl)-1H-pyrazol-4-yl)imidazo[1,2-c]pyrimidin-5-yl)-1H-pyrazol-1-yl)-1-(2,2,2-trifluoroethyl)azetidin-3-yl)acetonitrile], the IC50 (JAK2) was 10 to 100 nM, the IC50 (JAK1) was 100 to 1000 nM and the IC50 (Human Tyk2 kinase domain) was < 10 nM. For the same molecule, the IC50 (JAK3) was > 1000 nM.
